Experimental findings from ChEMBL document CHEMBL5291721, “A preclinical secondary pharmacology resource illuminates target-adverse drug reaction associations of marketed drugs” (Nat Commun, 2023) are described below.

One may read the AC50 as the concentration at which the activity in the assay is half-maximal.

Among the targets are D(1A) dopamine receptor (Homo sapiens, UniProt P21728); D(3) dopamine receptor (Homo sapiens, UniProt P35462); Histamine H3 receptor (Homo sapiens, UniProt Q9Y5N1); Mu-type opioid receptor (Homo sapiens, UniProt P35372).
The target of a further experiment is Prothrombin (Homo sapiens, UniProt P00734). The experiment is classed as functional.
Experiment [1] has as its target Sodium-dependent serotonin transporter (Homo sapiens, UniProt P31645).
Experiment [2] addresses Sodium-dependent dopamine transporter (Homo sapiens, UniProt Q01959).
The target of experiment [3] is 3',5'-cyclic-AMP phosphodiesterase 4A (Homo sapiens, UniProt P27815). The experiment is classed as functional.
In the next experiment the target is T1, Thromboxane A2 receptor (Homo sapiens, UniProt P21731).
T1 sequence (P21731 whole entry): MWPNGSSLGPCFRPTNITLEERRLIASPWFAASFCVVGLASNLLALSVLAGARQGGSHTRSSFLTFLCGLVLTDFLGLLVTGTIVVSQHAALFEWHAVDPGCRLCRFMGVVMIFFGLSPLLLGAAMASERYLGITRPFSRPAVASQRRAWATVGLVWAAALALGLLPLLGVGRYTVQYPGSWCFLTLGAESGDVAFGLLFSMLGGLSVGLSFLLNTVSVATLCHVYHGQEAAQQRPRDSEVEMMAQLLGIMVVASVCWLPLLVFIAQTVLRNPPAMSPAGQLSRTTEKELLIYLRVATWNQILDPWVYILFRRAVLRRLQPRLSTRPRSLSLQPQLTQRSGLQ
It is filed as functional, cell-based.

Experiment [4] deals with Prostaglandin G/H synthase 1 (Homo sapiens, UniProt P23219). The experiment is classed as functional.
Sequence of Prostaglandin G/H synthase 1 (P23219 whole entry): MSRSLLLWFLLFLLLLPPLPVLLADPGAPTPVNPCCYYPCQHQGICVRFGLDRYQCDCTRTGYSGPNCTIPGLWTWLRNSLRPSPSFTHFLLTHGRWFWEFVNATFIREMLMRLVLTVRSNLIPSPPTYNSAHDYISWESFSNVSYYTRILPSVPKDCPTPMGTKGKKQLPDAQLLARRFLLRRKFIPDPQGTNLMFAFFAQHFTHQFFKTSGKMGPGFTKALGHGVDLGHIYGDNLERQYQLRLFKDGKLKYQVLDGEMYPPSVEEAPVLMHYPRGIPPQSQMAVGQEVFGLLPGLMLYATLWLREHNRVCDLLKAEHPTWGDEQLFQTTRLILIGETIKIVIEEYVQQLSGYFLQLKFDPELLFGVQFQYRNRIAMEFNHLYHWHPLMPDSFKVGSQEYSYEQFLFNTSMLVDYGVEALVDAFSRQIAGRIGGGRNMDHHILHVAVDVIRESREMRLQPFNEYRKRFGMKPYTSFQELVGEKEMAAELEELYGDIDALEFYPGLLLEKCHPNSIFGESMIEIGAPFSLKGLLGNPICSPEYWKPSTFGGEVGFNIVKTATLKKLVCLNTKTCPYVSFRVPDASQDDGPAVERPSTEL
Experiment [5] concerns the target Voltage-gated inwardly rectifying potassium channel KCNH2 (Homo sapiens, UniProt Q12809). The experiment is classed as functional. The conditions noted are these: read-out: AC50.
Experiment [6] addresses T2, Alpha-2A adrenergic receptor (Homo sapiens, UniProt P08913).
T2 sequence (P08913 whole entry): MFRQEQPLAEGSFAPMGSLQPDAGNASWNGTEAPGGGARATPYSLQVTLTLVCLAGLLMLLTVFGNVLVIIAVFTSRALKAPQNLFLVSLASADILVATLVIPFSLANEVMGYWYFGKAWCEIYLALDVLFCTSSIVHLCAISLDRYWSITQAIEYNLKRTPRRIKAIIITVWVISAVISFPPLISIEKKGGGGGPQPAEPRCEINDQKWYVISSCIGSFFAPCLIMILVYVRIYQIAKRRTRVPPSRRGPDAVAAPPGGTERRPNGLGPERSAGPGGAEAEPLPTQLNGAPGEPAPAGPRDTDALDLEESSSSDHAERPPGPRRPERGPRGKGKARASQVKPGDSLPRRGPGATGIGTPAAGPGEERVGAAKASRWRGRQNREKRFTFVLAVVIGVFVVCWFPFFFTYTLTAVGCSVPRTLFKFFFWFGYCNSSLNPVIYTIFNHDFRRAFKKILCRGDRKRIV

The target of experiment [7] is T3, 5-hydroxytryptamine receptor 1A (Homo sapiens, UniProt P08908).
T3 sequence (P08908 whole entry): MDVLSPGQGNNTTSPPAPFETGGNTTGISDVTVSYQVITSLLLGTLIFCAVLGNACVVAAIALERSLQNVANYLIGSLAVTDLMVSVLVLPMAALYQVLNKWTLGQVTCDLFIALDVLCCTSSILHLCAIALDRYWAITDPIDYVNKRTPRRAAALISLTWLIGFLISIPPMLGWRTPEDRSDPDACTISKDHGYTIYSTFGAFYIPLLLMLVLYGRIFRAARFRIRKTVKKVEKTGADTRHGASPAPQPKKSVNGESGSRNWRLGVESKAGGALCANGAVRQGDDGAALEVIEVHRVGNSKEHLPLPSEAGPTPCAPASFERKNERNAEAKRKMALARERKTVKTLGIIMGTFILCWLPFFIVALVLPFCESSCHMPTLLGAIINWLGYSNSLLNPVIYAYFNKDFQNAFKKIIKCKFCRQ

A further experiment concerns the target T4, Estrogen receptor (Homo sapiens, UniProt P03372).
T4 sequence (P03372 whole entry): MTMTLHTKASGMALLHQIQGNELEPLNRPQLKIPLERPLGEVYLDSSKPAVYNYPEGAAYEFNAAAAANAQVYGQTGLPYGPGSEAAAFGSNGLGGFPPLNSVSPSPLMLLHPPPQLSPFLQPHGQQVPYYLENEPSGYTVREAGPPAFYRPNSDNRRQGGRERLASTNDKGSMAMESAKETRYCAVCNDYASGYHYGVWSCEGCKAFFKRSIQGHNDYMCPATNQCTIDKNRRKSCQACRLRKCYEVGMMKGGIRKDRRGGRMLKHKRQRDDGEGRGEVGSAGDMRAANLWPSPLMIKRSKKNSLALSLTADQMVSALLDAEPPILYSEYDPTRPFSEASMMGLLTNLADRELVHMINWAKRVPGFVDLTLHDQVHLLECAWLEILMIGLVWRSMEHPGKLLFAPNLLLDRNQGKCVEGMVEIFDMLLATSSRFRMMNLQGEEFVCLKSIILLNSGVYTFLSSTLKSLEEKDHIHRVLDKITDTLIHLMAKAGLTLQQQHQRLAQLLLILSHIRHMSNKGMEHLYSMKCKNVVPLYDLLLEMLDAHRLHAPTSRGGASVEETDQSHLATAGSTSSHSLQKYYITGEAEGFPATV

A further experiment addresses T5, Adenosine receptor A3 (Homo sapiens, UniProt P0DMS8).
T5 sequence (P0DMS8 whole entry): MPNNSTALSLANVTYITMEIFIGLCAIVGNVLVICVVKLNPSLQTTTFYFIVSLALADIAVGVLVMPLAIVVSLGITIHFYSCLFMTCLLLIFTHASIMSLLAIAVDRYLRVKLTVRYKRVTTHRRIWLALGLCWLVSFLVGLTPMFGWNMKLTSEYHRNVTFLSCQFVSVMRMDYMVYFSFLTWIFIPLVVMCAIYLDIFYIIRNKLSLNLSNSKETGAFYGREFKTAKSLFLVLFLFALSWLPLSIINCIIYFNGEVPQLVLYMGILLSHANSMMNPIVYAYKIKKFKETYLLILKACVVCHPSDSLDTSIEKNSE
Further: assay procedure not described here.

Sequence of Mu-type opioid receptor (P35372 whole entry): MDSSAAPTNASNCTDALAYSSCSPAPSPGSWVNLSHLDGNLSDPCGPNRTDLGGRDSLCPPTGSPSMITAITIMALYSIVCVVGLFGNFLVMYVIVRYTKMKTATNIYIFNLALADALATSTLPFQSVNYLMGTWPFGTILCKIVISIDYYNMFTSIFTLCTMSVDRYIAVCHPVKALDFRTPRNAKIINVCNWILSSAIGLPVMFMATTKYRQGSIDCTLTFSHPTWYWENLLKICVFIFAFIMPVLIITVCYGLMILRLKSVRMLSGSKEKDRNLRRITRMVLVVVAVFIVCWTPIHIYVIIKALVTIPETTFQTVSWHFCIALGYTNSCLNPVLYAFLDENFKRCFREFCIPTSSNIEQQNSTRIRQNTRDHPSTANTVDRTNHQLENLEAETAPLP
Sequence of D(3) dopamine receptor (P35462 whole entry): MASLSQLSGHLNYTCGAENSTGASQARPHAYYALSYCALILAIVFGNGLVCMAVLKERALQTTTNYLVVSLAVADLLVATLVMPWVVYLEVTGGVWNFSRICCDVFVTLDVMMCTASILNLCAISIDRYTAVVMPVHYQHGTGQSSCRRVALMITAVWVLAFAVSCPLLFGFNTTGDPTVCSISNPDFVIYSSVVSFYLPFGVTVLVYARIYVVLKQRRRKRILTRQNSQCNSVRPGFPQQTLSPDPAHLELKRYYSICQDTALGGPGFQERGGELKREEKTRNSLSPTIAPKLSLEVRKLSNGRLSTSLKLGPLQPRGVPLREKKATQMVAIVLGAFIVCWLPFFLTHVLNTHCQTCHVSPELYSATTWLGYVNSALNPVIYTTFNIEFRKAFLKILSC
Sequence of Histamine H3 receptor (Q9Y5N1 whole entry): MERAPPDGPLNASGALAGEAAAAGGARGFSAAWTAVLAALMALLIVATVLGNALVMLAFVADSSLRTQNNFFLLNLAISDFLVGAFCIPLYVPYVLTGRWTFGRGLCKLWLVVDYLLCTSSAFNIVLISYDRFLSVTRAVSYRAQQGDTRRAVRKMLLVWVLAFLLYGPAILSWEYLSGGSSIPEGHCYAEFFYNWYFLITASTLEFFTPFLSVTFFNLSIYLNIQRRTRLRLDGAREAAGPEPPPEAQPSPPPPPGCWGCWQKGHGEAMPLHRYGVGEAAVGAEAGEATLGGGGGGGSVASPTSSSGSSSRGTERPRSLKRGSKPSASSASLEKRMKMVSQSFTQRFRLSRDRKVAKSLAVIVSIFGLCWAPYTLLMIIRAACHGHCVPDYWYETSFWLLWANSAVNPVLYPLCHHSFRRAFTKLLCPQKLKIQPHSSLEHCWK
Sequence of Sodium-dependent serotonin transporter (P31645 whole entry): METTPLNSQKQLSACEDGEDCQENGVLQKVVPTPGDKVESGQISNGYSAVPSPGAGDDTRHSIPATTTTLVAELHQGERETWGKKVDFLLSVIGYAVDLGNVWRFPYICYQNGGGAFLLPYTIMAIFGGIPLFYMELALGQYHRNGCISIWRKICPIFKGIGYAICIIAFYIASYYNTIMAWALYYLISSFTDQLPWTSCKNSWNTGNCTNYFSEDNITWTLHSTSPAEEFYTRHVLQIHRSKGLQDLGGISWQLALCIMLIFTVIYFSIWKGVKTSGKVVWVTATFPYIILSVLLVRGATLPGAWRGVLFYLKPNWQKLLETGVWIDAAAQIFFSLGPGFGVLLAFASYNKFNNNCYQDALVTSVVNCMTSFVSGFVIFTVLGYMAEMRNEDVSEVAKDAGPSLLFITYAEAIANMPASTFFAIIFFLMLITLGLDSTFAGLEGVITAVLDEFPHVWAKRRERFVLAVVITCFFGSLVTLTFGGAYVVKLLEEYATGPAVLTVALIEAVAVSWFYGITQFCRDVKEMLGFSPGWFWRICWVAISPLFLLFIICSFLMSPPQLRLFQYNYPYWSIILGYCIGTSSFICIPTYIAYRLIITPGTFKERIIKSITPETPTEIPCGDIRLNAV
Sequence of Voltage-gated inwardly rectifying potassium channel KCNH2 (Q12809 whole entry): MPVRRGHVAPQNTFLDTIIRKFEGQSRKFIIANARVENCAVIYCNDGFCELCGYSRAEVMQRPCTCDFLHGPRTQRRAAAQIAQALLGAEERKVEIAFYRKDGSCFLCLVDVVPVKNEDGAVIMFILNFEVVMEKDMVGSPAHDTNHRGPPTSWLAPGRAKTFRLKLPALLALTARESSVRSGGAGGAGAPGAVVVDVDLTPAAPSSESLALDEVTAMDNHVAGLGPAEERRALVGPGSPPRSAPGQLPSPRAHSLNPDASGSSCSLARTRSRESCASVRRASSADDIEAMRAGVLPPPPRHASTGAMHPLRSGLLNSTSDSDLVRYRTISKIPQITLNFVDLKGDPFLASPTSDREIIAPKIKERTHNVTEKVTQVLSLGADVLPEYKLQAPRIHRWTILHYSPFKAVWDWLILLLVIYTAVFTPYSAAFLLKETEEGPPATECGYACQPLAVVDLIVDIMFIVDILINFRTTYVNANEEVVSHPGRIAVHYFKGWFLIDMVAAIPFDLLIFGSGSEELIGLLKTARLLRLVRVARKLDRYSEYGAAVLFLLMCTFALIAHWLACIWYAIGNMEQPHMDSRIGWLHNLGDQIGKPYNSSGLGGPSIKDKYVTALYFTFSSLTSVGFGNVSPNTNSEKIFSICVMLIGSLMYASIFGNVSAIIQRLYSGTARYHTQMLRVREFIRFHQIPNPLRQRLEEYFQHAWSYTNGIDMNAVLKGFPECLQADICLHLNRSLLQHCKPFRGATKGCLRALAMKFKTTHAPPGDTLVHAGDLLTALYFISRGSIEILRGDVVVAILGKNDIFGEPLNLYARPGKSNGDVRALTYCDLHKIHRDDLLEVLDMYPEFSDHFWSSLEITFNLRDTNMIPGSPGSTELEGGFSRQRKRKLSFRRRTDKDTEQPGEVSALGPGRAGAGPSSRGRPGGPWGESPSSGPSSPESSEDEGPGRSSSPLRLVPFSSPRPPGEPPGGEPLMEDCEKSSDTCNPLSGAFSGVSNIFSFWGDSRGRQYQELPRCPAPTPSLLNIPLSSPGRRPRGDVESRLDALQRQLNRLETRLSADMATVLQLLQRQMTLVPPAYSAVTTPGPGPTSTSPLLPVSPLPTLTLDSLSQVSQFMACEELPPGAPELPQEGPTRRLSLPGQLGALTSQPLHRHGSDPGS
Sequence of Sodium-dependent dopamine transporter (Q01959 whole entry): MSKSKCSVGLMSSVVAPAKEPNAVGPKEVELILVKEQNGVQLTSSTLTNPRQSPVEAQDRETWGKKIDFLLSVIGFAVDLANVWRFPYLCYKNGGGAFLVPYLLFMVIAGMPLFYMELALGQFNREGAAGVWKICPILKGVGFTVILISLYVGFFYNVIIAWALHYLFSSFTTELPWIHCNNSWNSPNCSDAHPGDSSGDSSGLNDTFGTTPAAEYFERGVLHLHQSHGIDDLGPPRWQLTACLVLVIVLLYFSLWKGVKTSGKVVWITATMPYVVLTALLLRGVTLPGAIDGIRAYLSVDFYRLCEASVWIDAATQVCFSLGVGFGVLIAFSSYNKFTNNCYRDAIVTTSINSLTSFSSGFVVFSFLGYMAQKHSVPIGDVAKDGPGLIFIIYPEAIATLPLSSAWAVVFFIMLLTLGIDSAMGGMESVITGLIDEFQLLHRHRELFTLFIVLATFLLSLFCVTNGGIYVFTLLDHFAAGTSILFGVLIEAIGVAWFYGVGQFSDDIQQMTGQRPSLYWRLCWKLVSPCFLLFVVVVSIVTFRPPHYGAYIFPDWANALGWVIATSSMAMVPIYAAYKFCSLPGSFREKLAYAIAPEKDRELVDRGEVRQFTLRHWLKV
Sequence of D(1A) dopamine receptor (P21728 whole entry): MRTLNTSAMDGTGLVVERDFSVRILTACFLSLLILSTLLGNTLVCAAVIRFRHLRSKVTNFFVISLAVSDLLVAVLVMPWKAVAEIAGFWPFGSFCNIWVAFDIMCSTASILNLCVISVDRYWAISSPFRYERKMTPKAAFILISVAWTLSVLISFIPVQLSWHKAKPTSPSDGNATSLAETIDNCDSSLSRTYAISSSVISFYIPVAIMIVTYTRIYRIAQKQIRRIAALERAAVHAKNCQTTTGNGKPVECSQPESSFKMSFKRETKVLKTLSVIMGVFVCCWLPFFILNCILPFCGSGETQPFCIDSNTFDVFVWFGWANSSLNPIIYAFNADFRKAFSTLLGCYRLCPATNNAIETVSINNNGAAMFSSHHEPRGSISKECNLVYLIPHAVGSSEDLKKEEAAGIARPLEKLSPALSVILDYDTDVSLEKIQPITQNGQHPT

For `NS(=O)(=O)c1cc2c(cc1Cl)NC(CC1CCCC1)NS2(=O)=O` (stereo not given) [CYCLOPENTHIAZIDE], the AC50 (at D(1A) dopamine receptor; on D(3) dopamine receptor; on Prothrombin; in [1]; in experiment [2]; in experiment [3]) was above 30 µM in each case. For the same compound, the AC50 (at Histamine H3 receptor; at Mu-type opioid receptor; at Thromboxane A2 receptor; in [4]; in experiment [5]; in [6]) was above 30 µM throughout. Also, the AC50 in experiment [7] was above 30 µM.
On to `NCc1ccccc1CC(=O)N[C@@H]1C(=O)N2C(C(=O)O)=C(CSc3nnnn3CC(=O)O)CS[C@H]12` [CEFORANIDE], for which the concentration at half-maximal activity (AC50) (at Estrogen receptor; on D(1A) dopamine receptor; at D(3) dopamine receptor; at Prothrombin; in experiment [1]; in experiment [2]) was above 30 µM each time. For the same compound, the AC50 in experiment [3] was above 30 µM; on Histamine H3 receptor, above 10 µM; at Mu-type opioid receptor, above 30 µM; at Thromboxane A2 receptor it was above 30 µM; in [4] it was above 30 µM; in experiment [6], above 30 µM. The compound also gave a concentration at half-maximal activity (AC50) in experiment [7] above 30 µM.
Consider `Oc1c(I)cc(I)c2cccnc12` [IODOQUINOL], for which the AC50 at Estrogen receptor is above 30 µM; at D(1A) dopamine receptor, above 30 µM; at D(3) dopamine receptor, above 30 µM; at Adenosine receptor A3, above 3 µM; at Prothrombin it was above 30 µM; in experiment [2] it was above 30 µM. In addition, the AC50 in experiment [3] is above 30 µM; on Histamine H3 receptor, above 30 µM; at Mu-type opioid receptor, 8.91 µM; at Thromboxane A2 receptor, above 30 µM; in experiment [4], above 30 µM; in experiment [5] it was above 30 µM. Moreover, the figures for the AC50 in experiment [6] and in experiment [7] were above 30 µM and above 10 µM, respectively.
`CN1CCN(C(c2ccccc2)c2ccccc2)CC1` [CYCLIZINE]: the concentration at half-maximal activity (AC50) is above 30 µM at Estrogen receptor; 14.4 µM on D(1A) dopamine receptor; 2.21 µM at D(3) dopamine receptor; 9.64 µM at Adenosine receptor A3; above 30 µM on Prothrombin; 1.98 µM in experiment [2]. Besides, the half-maximal activity concentration (AC50) in [3] is above 30 µM; at Histamine H3 receptor, above 30 µM; on Mu-type opioid receptor, 24.9 µM; on Thromboxane A2 receptor it was above 30 µM; in experiment [4], above 30 µM; in experiment [5], 20 µM. The AC50 was 3.47 µM in experiment [6] and above 30 µM in experiment [7].
With `CO/N=C(\C(=O)N[C@@H]1C(=O)N2C(C(=O)OCOC(=O)C(C)(C)C)=C(C)CS[C@H]12)c1csc(N)n1`, the AC50 (at D(1A) dopamine receptor; at D(3) dopamine receptor; on Prothrombin; in [1]; in experiment [2]; in experiment [3]) was above 30 µM throughout. The AC50 (on Histamine H3 receptor; at Mu-type opioid receptor; on Thromboxane A2 receptor; in [4]; in [5]; in [6]) was above 30 µM in each case. Further, in experiment [7], the AC50 was above 30 µM.
Consider `O=C(Cn1ccnc1[N+](=O)[O-])NCc1ccccc1` [BENZNIDAZOLE], for which the AC50 (on Estrogen receptor; on D(1A) dopamine receptor; on D(3) dopamine receptor; on Prothrombin; in [1]; in experiment [2]) was above 30 µM throughout. The AC50 (in experiment [3]; at Histamine H3 receptor; on Mu-type opioid receptor; at Thromboxane A2 receptor; in experiment [4]; in experiment [6]) was above 30 µM in each case. The AC50 in experiment [7] is above 30 µM.
On to `CCS(=O)(=O)N1CC(CC#N)(n2cc(-c3ncnc4[nH]ccc34)cn2)C1` [BARICITINIB], for which the AC50 (at Estrogen receptor; on D(1A) dopamine receptor; on D(3) dopamine receptor; on Prothrombin; in [1]; in experiment [2]) was above 30 µM each time. Besides, the AC50 is above 30 µM in [3]; above 30 µM at Histamine H3 receptor; above 30 µM on Mu-type opioid receptor; above 10 µM on Thromboxane A2 receptor; above 30 µM in [4]; above 30 µM in experiment [6]. The compound further showed a concentration at half-maximal activity (AC50) in experiment [7] above 30 µM.
`CN(Cc1cc(Br)cc(Br)c1N)C1CCCCC1` [BROMHEXINE]: the AC50 at Estrogen receptor is above 30 µM; on D(1A) dopamine receptor, above 30 µM; on D(3) dopamine receptor, above 30 µM; at Adenosine receptor A3, 27.9 µM; on Prothrombin, above 30 µM; in experiment [2], 12.3 µM. Further, the AC50 is 26.3 µM in experiment [3]; above 30 µM on Histamine H3 receptor; above 30 µM at Mu-type opioid receptor; above 30 µM on Thromboxane A2 receptor; above 30 µM in [4]; 20 µM in experiment [5]. The AC50 in [6] and in [7] was above 30 µM in each case.
As to `Nc1nc2c(ncn2CCC(CO)CO)c(=O)[nH]1` [PENCICLOVIR], the AC50 (on Estrogen receptor; at D(1A) dopamine receptor; on D(3) dopamine receptor; on Adenosine receptor A3; at Prothrombin; in [2]) was above 30 µM throughout. Moreover, the AC50 (in [3]; at Histamine H3 receptor; at Mu-type opioid receptor; at Thromboxane A2 receptor; in [4]; in experiment [5]) was above 30 µM throughout. Besides, the AC50 in [6] and in [7] was above 30 µM in each case.
Consider `CC1=NN(c2ccccc2)C(=O)C1` [EDARAVONE], for which the AC50 was above 30 µM at Estrogen receptor; above 30 µM at D(1A) dopamine receptor; 10.9 µM on D(3) dopamine receptor; above 30 µM on Adenosine receptor A3; above 30 µM at Prothrombin; above 30 µM in experiment [2]. The AC50 is above 30 µM in [3]; above 30 µM at Histamine H3 receptor; above 30 µM at Mu-type opioid receptor; above 30 µM at Thromboxane A2 receptor; 12.5 µM in [4]; above 30 µM in [5]. Further, the AC50 in [6] and in experiment [7] was above 30 µM in each case.
